Laboratory results reported in patent US20230158048A1, “COMBINATIONS” (Recurium IP Holdings, LLC, priority 2020, published 2023).

How the values were obtained:
MCF-7 cells = assay: Xenograft Tumor Model, MCF-7 (ER+ Breast cancer) mouse model; assay type: in vivo; conditions: MCF-7 xenograft mice, 50 mg/kg p.o.
Description: Mice were inoculated with MCF-7 cells subcutaneously on the 2nd right mammary fat pad with the single cell suspension of 95% viable tumor cells (1×10^7) in 100 μL DMEM Matrigel mixture (1:1 ratio) without serum for the tumor development. The treatment was started when the mean tumor size reached approximately 226 mm^3, with individual tumor size ranging from 185-245 mm^3. Animals were randomly distributed into treatment groups of 10 animals each and dosed with vehicle and indicated compounds at indicated dosage and frequency provided in FIG. 4 and Table 3. In FIG. 4, the bottom line with star is Compound 5A (200 mg/kg p.o. qd×24)+Palbociclib (50 mg/kg p.o. pd×24). Tumor volumes were evaluated twice per week to calculate tumor volume over time, and mice were weighed twice per week as a surrogate for signs of toxicity. Tumor growth inhibition (TGI) was calculated using the following equation TGI=(1−(Td−T0)/(Cd−C0))×100%. Td and Cd are the mean tumor volumes of the treated and control animals, and TO and C0 are the mean tumor volumes of the treated and control animals at the start of the experiment. The tumor regression was defined as individual tumor volume (TV) decrease (terminal TV compared to initial TV). The percent tumor regression was calculated using the formula: (1−(Td/T0))×100%.

ZR-75-1 cells = assay: CTG Assay (CellTiter-Glo Luminescent Cell Viability Assay), cell proliferation; assay type: cell-based; conditions: Homo sapiens, 160 nM, 72 h
Description: Cell proliferation was measured using the CellTiter-Glo® Luminescent Cell Viability Assay. The assay involved the addition of a single reagent (CellTiter-Glo® Reagent) directly to cells cultured in serum-supplemented medium. ZR-75-1 (ATCC® CRL-1500) cells were cultured according to ATCC recommendations and were seeded at 10,000 cells per well.
Compound 5A and Palbociclib were prepared as a DMSO stock solution (10 mM). Plates were incubated at 37° C., 5% CO2 for 72 h and then equilibrated at room temperature for approximately 30 min. An equal-volume amount of CellTiter-Glo® Reagent (100 μL) was added to each well. Plates were mixed for 2 min on an orbital shaker to induce cell lysis and then incubated at RT for 10 min to stabilize the luminescent signal. Luminescence (RLU (relative light unit)) was recorded using a SpectraMAX, M5e plate reader according to CellTiter-Glo protocol. Percent inhibition was calculated using the following formula: % inhibition=(RLU*100/(RLU of the cell background)). IC50 of each compound was calculated using GraphPad Prism by nonlinear regression analysis.

CC(=O)c1c(C)c2cnc(Nc3ccc(N4CCNCC4)cn3)nc2n(C2CCCC2)c1=O [Palbociclib]
TUMOR REGRESSION % (DAY 23) (MCF-7 cells): 0% | inhibition at 0.16 µM (ZR-75-1 cells): 20%
